Laboratory results from patent US20260069571A1, “DDR1 AND DDR2 INHIBITORS FOR THE TREATEMENT OF CANCER AND FIBROTIC DISEASES” (REDX PHARMA PLC, priority 2021, published 2026).

Key:
Recombinant human DDR1 = Recombinant human DDR1 (Homo sapiens (Human), UniProt Q08345); assay: LanthaScreen Eu Kinase Binding Assay, DDR1; details: DDR1 2.5 nM (aa440-876, GST tag), Kinase Tracer 178 5 nM; for IC50: read-out: DDR1 pIC50 (converted)
Method in brief: (§1)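 GST-tagged kinase domains (DDR1 aa440-876 at 2.5 nM; DDR2 aa427-855 at 1.75 nM) were preincubated 30 min at room temperature with compound in HEPES pH 7.3 buffer. Then 1 nM Eu-anti-GST plus Tracer 178 (5 nM DDR1, 10 nM DDR2) were added; after 60 min, TR-FRET gave IC50 by four-parameter fit, ≥2 replicates.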

Recombinant human DDR2 = Recombinant human DDR2 (Homo sapiens (Human), UniProt Q16832); assay: LanthaScreen Eu Kinase Binding Assay, DDR2; details: DDR2 1.75 nM (aa427-855, GST tag), Kinase Tracer 178 10 nM; for IC50: read-out: DDR2 pIC50 (converted)
Method in brief: as §1

Sequence of Recombinant human DDR1 (Q08345 other isoform, or with tags, fused parts or gaps): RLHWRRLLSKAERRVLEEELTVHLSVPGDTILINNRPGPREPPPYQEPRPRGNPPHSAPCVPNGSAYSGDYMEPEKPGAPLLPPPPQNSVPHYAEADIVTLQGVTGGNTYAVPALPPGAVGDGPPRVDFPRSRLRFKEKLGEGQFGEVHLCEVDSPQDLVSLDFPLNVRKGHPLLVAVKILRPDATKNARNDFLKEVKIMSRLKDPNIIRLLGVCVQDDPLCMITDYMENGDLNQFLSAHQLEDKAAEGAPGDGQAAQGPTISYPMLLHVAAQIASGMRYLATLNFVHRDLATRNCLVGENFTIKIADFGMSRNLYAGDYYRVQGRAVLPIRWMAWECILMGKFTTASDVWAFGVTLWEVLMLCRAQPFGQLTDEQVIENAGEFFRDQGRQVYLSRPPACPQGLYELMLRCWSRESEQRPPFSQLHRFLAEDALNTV
Sequence of Recombinant human DDR2 (Q16832 427-855): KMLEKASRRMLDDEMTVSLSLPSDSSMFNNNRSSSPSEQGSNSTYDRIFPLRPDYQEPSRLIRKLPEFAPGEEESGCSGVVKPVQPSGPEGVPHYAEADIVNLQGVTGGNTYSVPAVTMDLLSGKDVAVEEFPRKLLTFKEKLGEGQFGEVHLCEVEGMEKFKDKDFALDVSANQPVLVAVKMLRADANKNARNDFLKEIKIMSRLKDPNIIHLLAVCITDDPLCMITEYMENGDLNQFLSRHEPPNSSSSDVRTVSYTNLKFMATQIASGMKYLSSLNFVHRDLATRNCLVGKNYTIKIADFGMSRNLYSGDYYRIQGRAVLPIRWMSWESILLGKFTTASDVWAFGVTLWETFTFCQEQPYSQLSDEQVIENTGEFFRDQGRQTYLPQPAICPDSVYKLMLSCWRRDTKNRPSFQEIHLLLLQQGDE

| SMILES | IC50 (Recombinant human DDR1) | IC50 (Recombinant human DDR2) | DDR1 pIC50 (Recombinant human DDR1) | DDR2 pIC50 (Recombinant human DDR2) |
| --- | --- | --- | --- | --- |
| Cc1n[nH]c2cc(Nc3cccc4c3C(=O)N(CC(=O)N3CCO[C@@H](C(F)(F)F)C3)C4)cnc12 [Example 68, 7-[(3-methyl-1H-pyrazolo[4,3-b]pyridin-6-yl)amino]-2-[2-oxo-2-[(2R)-(trifluoromethyl)morpholin-4-yl]ethyl]isoindolin-1-one] | 10 to 100 nM | 100 to 1000 nM |  |  |
| Cc1n[nH]c2cc(N(C)c3cccc4c3C(=O)N(CC(=O)NCC(F)(F)F)C4)ccc12 [Example 78, 2-[7-[methyl-(3-methyl-1H-indazol-6-yl)amino]-1-oxo-isoindolin-2-yl]-N-(2,2,2-trifluoroethyl)acetamide] | 10 to 100 nM | 100 to 1000 nM |  |  |
| Cc1n[nH]c2cc(Nc3cccc4c3C(=O)N(CC(=O)N3CCO[C@H](C(F)(F)F)C3)C4)ccc12 [Example 48, 7-[(3-methyl-1H-indazol-6-yl)amino]-2-[2-oxo-2-[(2S)-(trifluoromethyl)morpholin-4-yl]ethyl]isoindolin-1-one] |  | 10 to 100 nM | A (pIC50>8) |  |
| CN(C)Cc1cc(NC(=O)CN2Cc3cccc(Nc4ccc5c(cnn5C)c4)c3C2=O)cc(C(F)(F)F)c1 [Example 20, N-[3-[(dimethylamino)methyl]-5-(trifluoromethyl)phenyl]-2-[7-[(1-methylindazol-5-yl)amino]-1-oxo-isoindolin-2-yl]acetamide] |  | 10 to 100 nM | A (pIC50>8) |  |
| Cc1n[nH]c2cc(Nc3cccc4c3C(=O)N(CC(=O)Nc3ccc(CN(C)C)c(C(F)(F)F)c3)C4)ccc12 [Example 37, N-[4-[(dimethylamino)methyl]-3-(trifluoromethyl)phenyl]-2-[7-[(3-methyl-1H-indazol-6-yl)amino]-1-oxo-isoindolin-2-yl]acetamide] |  | 10 to 100 nM | A (pIC50>8) |  |
| Cc1n[nH]c2nc(Nc3cccc4c3C(=O)N(CC(=O)NCC(F)(F)F)C4)ccc12 [Example 61, 2-[7-[(3-methyl-1H-pyrazolo[3,4-b]pyridin-6-yl)amino]-1-oxo-isoindolin-2-yl]-N-(2,2,2-trifluoroethyl)acetamide] | 100 to 1000 nM |  |  | D (pIC50≤6) |
| Cc1n[nH]c2cc(Nc3cccc4c3C(=O)N(CC(=O)NC3CC3(F)F)C4)ccc12 (stereo not drawn) [Example 36, N-(2,2-difluorocyclopropyl)-2-[7-[(3-methyl-1H-indazol-6-yl)amino]-1-oxo-isoindolin-2-yl]acetamide] |  |  | A (pIC50>8) | A (pIC50>8) |
| Cc1n[nH]c2cc(Nc3cccc4c3C(=O)N(CC(=O)N3CCOC(C(F)(F)F)C3)C4)ccc12 (stereo not drawn) [Example 38, 7-[(3-methyl-1H-indazol-6-yl)amino]-2-[2-oxo-2-[2-(trifluoromethyl)morpholin-4-yl]ethyl]isoindolin-1-one] |  | 10 to 100 nM | A (pIC50>8) |  |
| CN(c1ccc2[nH]nc(F)c2c1)c1cccc2c1C(=O)N(CC(=O)N1CCC[C@H]1C(F)(F)F)C2 [Example 92, 7-[(3-fluoro-1H-indazol-5-yl)-methyl-amino]-2-[2-oxo-2-[(2S)-(trifluoromethyl)pyrrolidin-1-yl]ethyl]isoindolin-1-one] | 10 to 100 nM | 100 to 1000 nM |  |  |
| N#Cc1cc(Nc2cccc3c2C(=O)N(CC(=O)NCC(F)(F)F)C3)cc2cn[nH]c12 [Example 60, 2-[7-[(7-cyano-1H-indazol-5-yl)amino]-1-oxo-isoindolin-2-yl]-N-(2,2,2-trifluoroethyl)acetamide] |  |  | A (pIC50>8) | A (pIC50>8) |
| Cc1n[nH]c2cc(Nc3cccc4c3C(=O)N(CC(=O)N[C@@H](C)C(F)(F)F)C4)cnc12 [Example 66, 2-[7-[(3-methyl-1H-pyrazolo[4,3-b]pyridin-6-yl)amino]-1-oxo-isoindolin-2-yl]-N-[(1S)-2,2,2-trifluoro-1-methyl-ethyl]acetamide] |  |  | A (pIC50>8) | A (pIC50>8) |

Further lines, results first:

| IC50 (Recombinant human DDR1) | IC50 (Recombinant human DDR2) | DDR1 pIC50 (Recombinant human DDR1) | DDR2 pIC50 (Recombinant human DDR2) | SMILES |
| --- | --- | --- | --- | --- |
| 10 to 100 nM | 10 to 100 nM |  |  | Cn1ncc2cc(Nc3cccc4c3C(=O)N(CC(=O)N3CCC[C@H]3CF)C4)cnc21 [Example 56, 7-[(1-methylpyrazolo[3,4-b]pyridin-5-yl)amino]-2-[2-oxo-2-[(2S)-(fluoromethyl)pyrrolidin-1-yl]ethyl]isoindolin-1-one] |
| < 10 nM | < 10 nM |  |  | Cn1ncc2cc(Nc3cccc4c3C(=O)N(CC(=O)N3CCC[C@H]3C(F)F)C4)ccc21 [Example 16, 2-[2-[(2S)-(difluoromethyl)pyrrolidin-1-yl]-2-oxo-ethyl]-7-[(1-methylindazol-5-yl)amino]isoindolin-1-one] |
| < 10 nM | < 10 nM |  |  | Cn1ncc2cc(Nc3cccc4c3C(=O)N(CC(=O)N3CCCC[C@H]3C(F)(F)F)C4)ccc21 [Example 14, 7-[(1-methylindazol-5-yl)amino]-2-[2-oxo-2-[(2S)-(trifluoromethyl)-1-piperidyl]ethyl]isoindolin-1-one] |
|  |  | A (pIC50>8) | A (pIC50>8) | Cn1ncc2cc(Nc3cccc4c3C(=O)N(CC(=O)N3CCC[C@H]3C(F)(F)F)C4)cnc21 [Example 51, 7-[(1-methylpyrazolo[3,4-b]pyridin-5-yl)amino]-2-[2-oxo-2-[(2S)-2-(trifluoromethyl)pyrrolidin-1-yl]ethyl]isoindolin-1-one] |
|  |  | A (pIC50>8) | A (pIC50>8) | Cn1ncc2cc(Nc3cccc4c3C(=O)N(CC(=O)N3CCC3C(F)(F)F)C4)ccc21 (stereo not drawn) [Example 50, 7-[(1-methylindazol-5-yl)amino]-2-[2-oxo-2-[2-(trifluoromethyl)azetidin-1-yl]ethyl]isoindolin-1-one] |
|  | 10 to 100 nM | A (pIC50>8) |  | C[C@H](NC(=O)CN1Cc2cccc(Nc3cnc4c(cnn4C)c3)c2C1=O)C(F)(F)F [Example 53, 2-[7-[(1-methylpyrazolo[3,4-b]pyridin-5-yl)amino]-1-oxo-isoindolin-2-yl]-N-[(1S)-2,2,2-trifluoro-1-methyl-ethyl]acetamide] |
|  | 10 to 100 nM | A (pIC50>8) |  | Cn1ncc2cc(Nc3cccc4c3C(=O)N(CC(=O)N3CCC[C@H]3C(F)F)C4)cnc21 [Example 58, 7-[(1-methylpyrazolo[3,4-b]pyridin-5-yl)amino]-2-[2-oxo-2-[(2S)-(difluoromethyl)pyrrolidin-1-yl]ethyl]isoindolin-1-one] |
| 10 to 100 nM | 10 to 100 nM |  |  | Cn1ncc2nc(Nc3cccc4c3C(=O)N(CC(=O)N3CCC[C@H]3C(F)(F)F)C4)ccc21 [Example 85, 7-[(1-methylpyrazolo[4,3-b]pyridin-5-yl)amino]-2-[2-oxo-2-[(2S)-(trifluoromethyl)pyrrolidin-1-yl]ethyl]isoindolin-1-one] |
| < 10 nM | < 10 nM |  |  | Cn1ncc2cc(Nc3cccc4c3C(=O)N(CC(=O)N3CCC[C@H]3C(F)(F)F)C4)ccc21 [Example 3, 7-[(1-Methylindazol-5-yl)amino]-2-[2-oxo-2-[(2S)-2-(trifluoromethyl)pyrrolidin-1-yl]ethyl]isoindolin-1-one] |
| 10 to 100 nM | 100 to 1000 nM |  |  | Cn1ncc2cc(Nc3cccc4c3C(=O)N(CC(=O)N3CCOC[C@H]3C(F)(F)F)C4)ccc21 [Example 44, 7-[(1-methylindazol-5-yl)amino]-2-[2-oxo-2-[(3S)-(trifluoromethyl)morpholin-4-yl]ethyl]isoindolin-1-one] |
